Assay results from US7968575B2, “Nitric oxide donors and uses thereof” (priority 2004, dated 2011).

Tests used:
isolated rat aorta = assay: In vitro induction of tolerance: vasorelaxation of aortic rings pre-exposed to the NO-releasing compound; format: cell-based; conditions: vasorelaxation in rings pre-treated with 0.44 mM of the compound versus control rings; in words
Procedure: Aortic rings were prepared as described hereinabove, and were exposed to 0.44 mM GTN (vehicle was water:ethanol:propyleneglycol at proportional ratio of 1:1:1) for 1 hour before CCRC construction, to thereby induce tolerance to nitroglycerine. At the end of the tolerance induction period, rings were thrice washed with the path buffer (Krebs-bicrbonate) every 15 minutes for the following hour and then CCRC for vasorelaxation on GTN-induced tolerance rings were constructed for GTN (pretreated versus untreated rings, FIG. 15), in order to verify the ability to induce and measure GTN tolerance induction in vitro
Attempted induction of tolerance to the NO-donating compounds of the present invention was performed under the same conditions as for GTN. Thus, in an exemplary experiment, rings were exposed to 0.44 mM solution of Pet-3 in the attempt to induce tolerance for Pet-3. CCRC were then measured for the vasorelaxing effect of Pet-3 on a group of rings which were pre-exposed to Pet-3 as to induce tolerance to Pet-3, and for an untreated control group. The above protocol was repeated with Pet-2, Pet-7, Pet-8, Pet-12, Pet-24, Pet-43, Pet-149 and Pet-152.

c-GMP [1] = assay: Cyclic-GMP measurement in aortic rat tissue (radioimmunoassay); format: cell-based; conditions: rat thoracic aorta, summary of Table 5; in words
Procedure: GTN (10^−6 M) was added to the chamber and, 1 minute after exposure to the drug, rings (usually 3-5) were taken, wrapped with aluminum foil and immediately frozen in liquid nitrogen for storage. Control sample group was treated with the vehicle solution only. At the time of analysis, rings were thawed, blotted over a dry gauzed and weighted. A known weight of tissue was homogenized in 2 ml ice-cold modified Hank's balanced salt solution containing (in gram/liter) NaCl 8; KCl 0.4; glucose 1; KH2PO4 0.06; Na2HPO4 0.047; Phenol red 0.017 and further containing 25 mM EDTA (disodium salt). The homogenate was centrifuged at 4000 g (force units) for 10 minutes at 2-4° C. and the supernatant was thereafter transferred into fresh pre-cooled test tube containing 1 ml of acetonitrile. The tubes were vortex mixed for a few seconds and subsequently centrifuged at 4000 g for 5 minutes at 2-4° C., to remove the precipitated protein. Each supernatant was transferred into a clean test tube and evaporated to dryness under a stream of nitrogen at 55° C. The dry residue was reconstituted with 10 volumes of Tris-EDTA buffer pH 7.5 (0.05 M Tris containing 4 mM EDTA). Aliquots of 100 μl of the reconstituted solution in duplicate were used for c-GMP measurements using Amersham RIA kit, as is described in Haj-Yehia & Benet [Pharmacology, 1995, 273, 1, pp. 94-100]. Standard curves were plotted with six concentrations (0, 0.5, 1, 2, 4 and 8 pmoles of c-GMP per tube).
The NO-tolerance effect of GTN and NO-donor compounds according to the present invention was measured by following the production of c-GMP in slices of thoracic aorta of rats. Thus, the production of c-GMP was measured as described in the methods section above for the reference NO-donor compound GTN, and for the NO-donors of the present invention Pet-2, Pet-3, Pet-7, Pet-8, Pet-10, Pet-12, Pet-24, Pet-59, Pet-147, Pet-149, Pet-152, Pet-154 and Pet-155.

[2] = test system: anesthetized hypertensive Sprague-Dawley male rats; assay: Hypotensive effects: mean arterial pressure after iv bolus; format: in vivo, rat; conditions: rats pre-treated with phenylephrine, iv bolus doses; in words
Procedure: Mean arterial pressure (MAP) was monitored and determined during bolus infusion of Pet-2, Pet-3, Pet-7, Pet-8, Pet-12 and Pet-13. Briefly, polyethylene catheters (PE50) were inserted into the carotid artery and into the jugular vein of anesthetized hypertensive Sprague-Dawley male rats (200-300 grams). A blood pressure recorder was placed within the carotid artery. Phenylephrine (0.1 mg) was then injected and the mean arterial blood pressure (MABP) was monitored continuously until a stable baseline was reached. The hypotensive effects of intravenous (iv) bolus doses (0.1 mg of each tested compound) administered intravenously at the jugular vein in minimal volume of vehicle (0.2 ml per dose) were evaluated. Five minutes were allowed between each dose, during which the maximal decrease in MAP was recorded and a dose-response graph comparing the hypotensive effect of the compounds was constructed.

c-GMP [3] = assay: Induction of in vivo nitrate tolerance (cGMP in aorta isolated after 16 hour infusion); design: species or system rat; conditions: in words
Procedure: For c-GMP levels and tolerance development, the rat's thoracic aorta was isolated after exposure to the tested compound in vivo, and measured as described above in the in vitro assays.
Male Sprague Dawley rats (220 to 250 grams) were housed under constant temperature and humidity conditions. Light was maintained at a 12/12 light dark cycle. Except for 12 hours before the experiment, when food fasting was initiated, all rats had free access to standard rat pellet diet and tap water. The animals were anesthetized by intraperitoneal injection of ketamine and xylazine combination (50 and 10 milligram per kilogram, respectively). […] The catheters were filled with normal saline solution containing 1000 IU/ml of heparin and plugged with a metal pin. Catheters were externalized to the back of the neck region and secured by a polyester felt disk.
After implantation, the rats were individually housed until they regained their preoperative weight and appeared healthy (3 to 4 days post-operation). At this time point (day 0), an osmotic mini-pump (Alza Corp., Palo Alto, Calif.) delivering constant volume (10 μl/hour) of vehicle or drug was connected to one of the intravenous catheters.
For inducing tolerance to the tested NO-donor according to the present invention, the animals received 200 μg/hour of the tested compound for 16 hours (short-term-induced tolerance). A similar number of animals were processed by the same surgical procedure and received the vehicle alone (10 μl/hour of a solution consisting of 30% ethanol and 30% propylene glycol in sterile distilled water for injection).
At the end of the infusion periods used for the development of tolerance (16 hour), the rats were anesthetized as described above, the two catheters were externalized and the delivering catheters were disconnected from the mini-pump. The abdomen was opened by midline incision and the thoracic aorta were isolated, washed and cleaned from the surrounding tissues. Strips of the treated aortas were pooled in chambers containing Krebs-Hanseliet buffer (10 ml), and exposed to 1 μM of the tested NO-donor (final concentration) for 120 seconds. The tissues were quickly collected and frozen in liquid nitrogen for cGMP measurement, described hereinabove.

`O=[N+]([O-])OCC(CO[N+](=O)[O-])O[N+](=O)[O-]` [GTN, glyceryl trinitrate, reference compound] was tested, and the “tolerance induction in vitro” value (isolated rat aorta) was “tolerance induced”, the “c-GMP level following a repeated treatment” value (c-GMP [1]) was “significantly reduced” and the “hypotensive effect on MAP following successive administrations” value [2] was “attenuation”. The “level of cGMP following a repeated treatment in vivo” value (c-GMP [3]; aorta of rats infused 200 μg/hour for 16 hours, then exposed to 1 μM compound for 120 seconds) was “decreased” and the “tolerance induction in vivo” value (c-GMP [3]; cGMP accumulation in isolated aorta of rats pre-treated in vivo with the compound) was “tolerance inducing effect”.
